The results in this text go back to PubChem BioAssay AID1508612.

A value given as a limit tells only on which side of the number the result lay.

The data set is described as follows: passive permeability, PAMPA, ADME assay (AID 1508612). As to conditions: pH 7.4, 30.0 min, 50.0 µM. In general terms: PAMPA measures passive passage across an artificial lipid membrane.
In turn, `Cc1cc(NS(=O)(=O)c2ccc(NCCc3ccc(Cl)c(Cl)c3)cc2)no1` registered a Papp of 406 ×10⁻⁶ cm/s. Compound `O=S(=O)(Nc1ccc(S(=O)(=O)Nc2nccs2)cc1)c1ccc2ccccc2c1` registered a Papp of 7.37 ×10⁻⁶ cm/s. Under `Nc1nc2c(s1)C(c1cccc(F)c1F)CC(=O)N2` (stereo not drawn) stands 9.86 ×10⁻⁶ cm/s; under `Cc1ccc(CNc2ccccc2C(=O)Nc2nc(-c3ccccc3)cs2)cc1`, 26.4 ×10⁻⁶ cm/s; under `O=C(O)c1ccccc1C(=O)Nc1ccc(-c2ccccc2)cc1`, 3.49 ×10⁻⁶ cm/s. The compound `O=C(c1cnccn1)N1CCC2(CCCN(C(c3ccccc3)c3ccccc3)C2)CC1` displayed an apparent permeability (Papp) of 3 ×10⁻⁶ cm/s. The value for `Fc1cc(F)cc(Nc2nc(-c3ccncc3)nc3ccccc23)c1` was 84.9 ×10⁻⁶ cm/s; that for `Cc1nn2c(c1-c1ccccc1OCc1ccccc1)N(C(=O)Cc1ccc3c(c1)OCO3)CCC2` was > 1000 ×10⁻⁶ cm/s. In the case of `NC(=O)c1cnc(N[C@@H]2CCCC[C@@H]2N)nc1Nc1cccc(-n2nccn2)c1`, the Papp was 11.7 ×10⁻⁶ cm/s. Under `CNC(=O)C1CCN(c2nc(-c3ccc(Br)cc3)cs2)CC1` stands 736 ×10⁻⁶ cm/s; under `N=c1c2c(ccn1CCc1ccccc1)Oc1ccc3ccccc3c1C2c1ccccc1` (stereo not drawn), 553 ×10⁻⁶ cm/s; under `COc1ccc2cc1Oc1ccc(cc1)C[C@@H]1c3c(cc(OC)c4c3Oc3cc5c(cc3O4)CCN[C@H]5C2)CCN1C`, 217 ×10⁻⁶ cm/s. The value for `O=C1CN(C(=O)CCC(=O)N2CCc3c(nc4cc(-c5ccccc5)[nH]n4c3=O)C2)c2ccccc2N1` was < 1 ×10⁻⁶ cm/s. Under `O=C(c1ccc2c(c1)OCO2)N1CCC(Cc2nc(-c3cnccn3)no2)CC1` stands 71.9 ×10⁻⁶ cm/s; under `CC1=C(C(=O)Nc2ccc(Cl)cc2)C(c2ccccc2C)n2ncc(C(=O)Nc3ccc(C)cc3)c2N1` (stereo not drawn), 10.1 ×10⁻⁶ cm/s; under `COc1cccc(CNc2ccc(S(=O)(=O)Nc3ccc(C)nc3)cc2)c1O`, 973 ×10⁻⁶ cm/s. In turn, `C[C@]1(CO)CN(c2cc(C(=O)Nc3ccc4c(c3)-c3c(c(C(N)=O)nn3-c3ccc(F)cc3)CC4)c(Cl)cn2)C[C@@]1(C)CO` displayed a Papp of 18.5 ×10⁻⁶ cm/s.

For `COc1ccc(-c2csc(CCn3nc(C)c4c(C(F)(F)F)cc(=O)[nH]c43)n2)cc1`, the Papp is 825 ×10⁻⁶ cm/s. The value for `COc1ccc(C(=O)NC2CCN(c3cnn(CC4CC4)c(=O)c3)CC2)c(OC)n1` was 550 ×10⁻⁶ cm/s; that for `COc1cc([C@@H]2c3cc4c(cc3[C@H](O)[C@H]3COC(=O)[C@H]23)OCO4)cc(OC)c1OC` was 224 ×10⁻⁶ cm/s. The value for `Cc1noc(C)c1-c1ccc2ncnc(NCc3ccc4[nH]ccc4c3)c2c1` was > 1000 ×10⁻⁶ cm/s; that for `NS(=O)(=O)c1ccc(NC(=O)c2cc3ncccn3n2)cc1` was 82.5 ×10⁻⁶ cm/s.

`O=C1CCCC2=C1C(c1[nH]ncc1Cl)N=C(Nc1nc3ccccc3o1)N2` (stereo not drawn) returned a Papp of 718 ×10⁻⁶ cm/s. As to `CC[C@H]1CN(C)[C@H]2Cc3c([nH]c4ccccc34)C(=O)C[C@H]1[C@H]2C(=O)OC`, the Papp stood at 490 ×10⁻⁶ cm/s. Under `Cn1nnnc1Sc1ncnc2scc(-c3cccc(S(C)(=O)=O)c3)c12` stands 93.9 ×10⁻⁶ cm/s; under `O=C1c2ccccc2-n2c1nc1ccccc1c2=O`, 715 ×10⁻⁶ cm/s.

Compound `O=C1Nc2c(Cl)cccc2/C1=C\c1cc(Cl)c(O)c(Cl)c1` had a Papp of 58.8 ×10⁻⁶ cm/s. The value for `CCOC(=O)C1=C(C)NC(=O)CC1C(=O)Nc1cc(Cl)cc(Cl)c1` (stereo not drawn) was 599 ×10⁻⁶ cm/s; that for `COc1ccc(-c2nc3c(c(SCC(=O)Nc4ccc(C(=O)O)cc4)n2)Cc2ccccc2O3)cc1` was 1.18 ×10⁻⁶ cm/s; that for `Cc1ccc(S(=O)(=O)Nc2ccccc2C(=O)Nc2nc(-c3ccccc3)co2)cc1` was 358 ×10⁻⁶ cm/s. For `Cc1ccc(-c2nnc(N3CCC(C(N)=O)CC3)s2)cc1`, the Papp came out at 246 ×10⁻⁶ cm/s.

Compound `Cc1nc([C@](C)(O)CO)sc1-c1cnc(N)c(O[C@H](C)c2cc(F)ccc2-n2nccn2)c1` yielded a Papp of 414 ×10⁻⁶ cm/s. The value for `Cc1cn2c(N)c(Cl)cc(C(=O)NCC3CCN(CC(C)C)CC3)c2n1` was 606 ×10⁻⁶ cm/s; that for `Cc1cccc(-n2cnc3cc(C(=O)N4CCC(Br)CC4)ccc32)c1` was > 1000 ×10⁻⁶ cm/s; that for `COc1ccccc1-c1csc(N2CCC(C(N)=O)CC2)n1` was 693 ×10⁻⁶ cm/s. Under `COc1ccc(C(=O)Nc2ccc3c(c2)N(C2CCCC2)C(=O)c2ccccc2S3)cc1OC` stands 15.7 ×10⁻⁶ cm/s; under `COc1ccc2[nH]c(=O)c(-c3noc(-c4cccs4)n3)cc2c1`, 351 ×10⁻⁶ cm/s. As for `COc1ccc(C2(C(=O)N3CCC(n4cc(-c5nc(C)no5)nn4)CC3)CC2)cc1`, the Papp was found to be 34.9 ×10⁻⁶ cm/s.

Turning to `Cc1cnccc1-c1nc(Nc2ccc(F)c(F)c2)c2ccccc2n1`, the Papp is 31.1 ×10⁻⁶ cm/s. On to `CCC(CC)c1cc([C@H]2CN3CC[C@H]2C[C@@H]3CNC(=O)Cc2cccs2)nc(-c2ccncc2)n1`, for which the Papp was 448 ×10⁻⁶ cm/s. With `COc1cccc(O)c1CNc1ccc(S(=O)(=O)Nc2nccs2)cc1`, the Papp came to 5.16 ×10⁻⁶ cm/s. The value for `Cc1ccc(-c2cc(C(=O)Nc3ccc(S(=O)(=O)N(C)Cc4nccs4)cc3)c3ccccc3n2)cc1C` was < 1 ×10⁻⁶ cm/s; that for `O=C(Nc1cccc(C(F)(F)F)c1)c1ccccc1NC(=O)C1CCCCC1` was < 1 ×10⁻⁶ cm/s; that for `COc1ccc(S(=O)(=O)N2CCCCCC2)cc1NC(=O)Cc1n[nH]c(=O)c2ccccc12` was < 1 ×10⁻⁶ cm/s.

In turn, `CCCCn1cnc2cc(NC(=O)c3cc(OC)c(OC)c(OC)c3)ccc21` registered a Papp of 693 ×10⁻⁶ cm/s.

`O=[S+]([O-])(Nc1nccs1)c1ccc(NCc2cc(Cl)cc(Br)c2O)cc1` showed a Papp of 265 ×10⁻⁶ cm/s.

The compound `Cc1noc(C)c1-c1ccc2ncnc(NCc3cccc(Cl)c3)c2c1` yielded a Papp of 970 ×10⁻⁶ cm/s. As to `CC(=O)N1CCc2cc(S(=O)(=O)NCCC3=CCCCC3)ccc21`, the Papp was 444 ×10⁻⁶ cm/s. The value for `O=C(Nc1ccc2oc(-c3cccnc3)nc2c1)c1ccc(-c2cccc(Cl)c2)o1` was 310 ×10⁻⁶ cm/s. The value for `O=[S+]([O-])(Nc1ccc(N2CCNCC2)cc1)c1ccc(NCc2ccc(Br)cc2O)cc1` was 7.93 ×10⁻⁶ cm/s; that for `Cc1cc(Cl)ccc1COc1ccnn1-c1cc(C(=O)O)ccn1` was 5.16 ×10⁻⁶ cm/s; that for `COc1cc(Cl)c(C)cc1Nc1c2c(nc3ccccc13)CCC2` was > 1000 ×10⁻⁶ cm/s.

On to `COc1ccc(-n2nc(C3CCCN(C(=O)Cc4ccc(F)cc4)C3)[nH]c2=O)cc1` (stereo not drawn), for which the Papp came out at 851 ×10⁻⁶ cm/s. `Cc1ccccc1C(=O)Nc1nc2c(s1)CC(C(C)(C)C)CC2` (stereo not drawn): the Papp stood at 257 ×10⁻⁶ cm/s.

Turning to `CC(C)c1ccccc1-c1ncc(F)c(NCC2CCN(c3cccnc3)CC2)n1`, the Papp is > 1000 ×10⁻⁶ cm/s.

In the case of `CN(C)CCN1C(=O)c2cccc3cc(N)cc(c23)C1=O`, the Papp worked out at 339 ×10⁻⁶ cm/s.

For the compound `CCCCN(CC)CCNC(=O)c1cc2c(-c3ccc(Cl)cc3)nn(C)c2s1`, the Papp was > 1000 ×10⁻⁶ cm/s. The value for `Cc1noc(C)c1S(=O)(=O)Nc1cnccc1C(=O)Nc1nc(-c2ccccc2)cs1` was 339 ×10⁻⁶ cm/s; that for `CC(C)CN(C[C@@H](O)[C@H](Cc1ccccc1)NC(=O)O[C@@H]1CO[C@H]2OCC[C@H]21)S(=O)(=O)c1ccc(N)cc1` was 192 ×10⁻⁶ cm/s; that for `CCOP(=O)(Cc1ccc(C(=O)Nc2ccc(Br)cc2C#N)cc1)OCC` was 255 ×10⁻⁶ cm/s. The value for `Cn1c(=O)c2cc(C(=O)NCCCN3CCN(c4ccccc4F)CC3)sc2c2ccccc21` was > 1000 ×10⁻⁶ cm/s; that for `CC(=O)Nc1ncc(S(=O)(=O)Nc2cnccc2C(=O)Nc2nc(-c3ccccc3)cs2)s1` was 21.4 ×10⁻⁶ cm/s.

Regarding `O=C(O)c1ccccc1-c1ccc(/C=c2\sc3nc4cc(Br)cnc4n3c2=O)o1`, the apparent permeability (Papp) came to 12.3 ×10⁻⁶ cm/s. Under `COc1ccc(C2=Nn3c(nnc3-c3ccncc3)SC2)cc1` stands 244 ×10⁻⁶ cm/s; under `c1cn2cc(-c3ccc4cn[nH]c4c3)nc(Nc3ccc(N4CCOCC4)cc3)c2n1`, 391 ×10⁻⁶ cm/s; under `CCN(CC)C(=O)c1ccc(O)c(OC)c1`, 482 ×10⁻⁶ cm/s. The value for `NC(=O)C1CCN(c2nc(-c3ccc4c(c3)OCCCO4)cs2)CC1` was 629 ×10⁻⁶ cm/s; that for `CN(C)c1cccc(-c2cnc(N3CCC(C(N)=O)CC3)nc2)c1` was 273 ×10⁻⁶ cm/s; that for `O=C(c1nc(-c2ccc(Cl)cc2Cl)c2cnccn12)N1CCOCC1` was > 1000 ×10⁻⁶ cm/s. The value for `CCOC(=O)c1ccc(N2C(=O)c3n[nH]c(-c4cccs4)c3C2c2ccc(Cl)cc2Cl)cc1` (stereo not drawn) was 85.8 ×10⁻⁶ cm/s. In the case of `O=c1cc(N2CCOCC2)oc2c1ccc1ccccc12`, the Papp worked out at 294 ×10⁻⁶ cm/s. As to `COc1ccc(C(=O)N[C@@H]2CCC[C@@H]2C(=O)N2CCC(Cc3ccccc3)CC2)cc1`, the Papp is > 1000 ×10⁻⁶ cm/s. Under `O=C(CNC12CC3CC(CC(C3)C1)C2)c1ccc(Cl)cc1` stands 635 ×10⁻⁶ cm/s; under `COc1ccccc1-c1nc(NCc2cnc(C)cn2)c2ccccc2n1`, > 1000 ×10⁻⁶ cm/s; under `Cc1ccc(NC(=O)c2cc(-c3ccc[nH]3)n[nH]2)cc1F`, 157 ×10⁻⁶ cm/s. Under `Cc1cc(C)nc(NC(=S)N2CCN(Cc3ccc(C(F)(F)F)cc3)CC2)c1` stands > 1000 ×10⁻⁶ cm/s. Under `CN(Cc1ccccc1)C(=O)c1ccc(S(=O)(=O)Nc2ccccc2)cc1` stands 288 ×10⁻⁶ cm/s; under `CCC(CC)C(=O)NC[C@@H]1C=C(C)[C@H](Cc2nc3c(C)cccc3[nH]2)C[C@H]1C(C)C`, > 1000 ×10⁻⁶ cm/s. For `Cc1cnc(-c2ccccc2C(F)F)nc1NCc1ccc(-c2cccnc2)cc1`, the Papp is > 1000 ×10⁻⁶ cm/s.

In the case of `Fc1cnc(-c2ccccc2C(F)F)nc1NCc1ccc(-c2ccn[nH]2)cc1`, the Papp was > 1000 ×10⁻⁶ cm/s. Under `O=S(=O)(Nc1ccccc1)c1ccc(NCc2ccc(Br)cc2O)cc1` stands 537 ×10⁻⁶ cm/s.

`Cc1cc(C)nc(NC(=S)N2CCN(c3ccc(Cl)cc3F)CC2)c1`: the Papp was > 1000 ×10⁻⁶ cm/s. The value for `COc1cccc(CNc2ccc(S(=O)(=O)Nc3cccnc3)cc2)c1O` was 632 ×10⁻⁶ cm/s; that for `OCc1ccc(-c2nn(Cc3ccccc3)c3ccccc23)o1` was 842 ×10⁻⁶ cm/s.

With `COc1cccc(-c2noc(Nc3ccc4c(c3)OCCO4)n2)c1`, the Papp turned out to be 202 ×10⁻⁶ cm/s. Compound `Fc1ccc(N2CCCN(CC3[C@H]4CNC[C@@H]34)CC2)cc1` (stereo partly drawn) came in with a Papp of 196 ×10⁻⁶ cm/s. Under `CC1=Nc2cc(C(=O)NCc3ccccc3Cl)ccc2Sc2c(C)ccc(C)c21` stands 161 ×10⁻⁶ cm/s; under `Cc1cc2c(C(N)=O)cccc2n1-c1nc2c(c(NCc3ccccc3)n1)COCC2`, 597 ×10⁻⁶ cm/s; under `N#Cc1ccc(S(=O)(=O)Nc2cnccc2C(=O)Nc2nc(-c3ccccc3)cs2)cc1`, 279 ×10⁻⁶ cm/s.

As for `Cc1ccc(OCCn2c(CCNC(=O)c3ccccc3Br)nc3ccccc32)cc1`, the Papp worked out at 993 ×10⁻⁶ cm/s. `NC(=O)C1CCN(c2nccc(Cl)n2)CC1`: the Papp came to 37.3 ×10⁻⁶ cm/s. The value for `CCc1cccc(NC(=O)c2cc(-c3ccc[nH]3)n[nH]2)c1` was 87.7 ×10⁻⁶ cm/s; that for `O=C1Nc2ccccc2/C1=C\c1ccc(O)cc1` was 755 ×10⁻⁶ cm/s.

Usually Papp stands for the rate of passage across a membrane or cell layer, normalised by area and donor concentration.
